The record followed here is patent US8420606B2, “Method of utilizing physiological activity of rare saccharide and composition containing rare saccharide” (priority 2002, dated 2013).

SMILES strings stand for the structures. “Also recorded” adds a separate entry of the source.

For one assay, the system named is KS-1. The experiment in a line: blood-system cancer cell strain proliferation, Coulter Counter, KS1. The format is cell-based. The settings on record: 0.05-50 mM, 7 days, D-glucose control. How it is done: (2) Method: Total 6 kinds of cell strains, i.e., Myeloid (HL-60, THP-1, KG-1), T-cell (MT-2), and B-Cell (Daudi, KS-1), and 3 kinds of rare saccharides (i.e., D-psicose, D-altrose, and D-allose), were employed. The culture medium and the cells were prepared to be 1 mL in total and 1×10^5 in number, respectively. Then, the cell number at each of fourth day and seventh day was counted by using a Coulter Counter. Each rare saccharide was added at concentrations of 0.05, 0.5, 5 and 50 mM, while D-glucose was used as a control.
Culture Medium: FBS 10% added RPMI1460
Cultivation Conditions: 37° C., 5% CO2
Cultivation Vessel: FALCON, MULTIWELL, 12 wells
Number of Cultivation Days: 7 days
Saccharides Concentration: 0.05, 0.5, 5, 50 mM

Assay [1] relates to skin keratinocyte (HaCaT). In words: proliferation of cultured cells, MTT method, HaCaT. The format is cell-based, human. The settings on record: saccharide 50 mM, 4 to 5 days. On the procedure: (§1) Various kinds of rare saccharides were added at a concentration of 50 mM to culture media under the following conditions, and an influence of each rare saccharide upon the progress of proliferation of cancer cell strains was examined.
(§2) (1) Target cells to which the rare saccharides were added: Hepatic cancer cells (HepG2), uterine cancer cells (He1a), ovary cancer cells (OVCAR3), and skin keratinocyte (HaCaT) were selected as target cells to which the rare saccharides were added.
(§3) (2) Rare saccharides added: In addition to D-allose, glucose and D-altros as rare saccharides belonging to ketose were added, as other comparative saccharides, to the addition target cells. Also, D-fructose was employed as a control.
(§4) (3) Experiment method: A number 3,000-5,000 of addition target cells per type were inoculated into a multi-well plastic dish (hereinafter referred to as a “well”) having 96 wells, and were cultured for 4 to 5 days in a culture medium supplemented with 5 to 10% of Fetal Bovine Serum (FBS) depending on the cell types. […] To examine the influence upon the cell proliferation, the cell number was measured in units of 24 hours by using the MTT method described below. […]
(§5) (2) Test method: The cells were treated with TEP to prepare a cell suspension liquid. […] The absorbance of the liquid was measured at a wavelength of 570 to 600 nm by using a spectrophotometer. […]
In general terms: Tetrazolium dyes change colour on reduction, which living cells bring about.

The subject of assay [2] is uterine cancer cells (He1a). In words: proliferation of cultured cells, MTT method, He1a. The note with it: saccharide 50 mM, 4 to 5 days. The assay is classed as cell-based, human. How it is done: as §1, §2, §3, §4, §5
Assay [3] relates to Human vascular endothelial cells (HUVECs). In words: MCP-1 secretion from vascular endothelial cells, ELISA. The assay is classed as cell-based. The settings on record: D-psicose 0, 5.6, 11.2 mM, 24 hours. How it is done:
Human vascular endothelial cells (HUVECs) were cultured under the culture medium condition of (DMEM +10% FBS) in accordance with the ordinary method. HUVECs at concentration of about 70% were pipitted into a 96-well culture dish, and the following experiments were performed.
D-psicose was added to the HUVECs culture medium at concentrations of 0 mM, 5.6 mM and 11.2 mM. After cultivation for 24 hours, MCP-1 in the culture medium was measured by using an ELISA (Quantikine, R&D) kit.
HUVECs were pretreated for 1 hour with cytokines acting upon HUVECs and stimulating secretion of MCP-1, i.e., IL-1β (maximum secretion stimulus concentration of 1 ng/mL), and TNF-α (maximum secretion stimulus concentration of 10 ng/mL). Then, D-psicose was added at concentrations of 0 mM, 5.6 mM and 11.2 mM, and after 24-hour cultivation, the MCP-1 concentration in the culture medium was measured by using the ELISA kit. […] The secretion of MCP-1 in the vascular endothelial cells is stimulated by cytokines (IL-1β, TNF-α) at maximum secretion stimulus concentration of 1 ng/mL for IL-1β and 10 ng/mL for TNF-α.
(ELISA stands for enzyme-linked immunosorbent assay.)

With `O=C[C@H](O)[C@H](O)[C@H](O)[C@H](O)CO` [D-allose], the results for the “KS1 proliferation inhibitory effect” value in the assay on KS-1 and with KS-1 (listed as allose) were “having the inhibitory effect” and “showed a cell proliferation inhibitory effect at 59 mM”, respectively. In addition, in assay [1], the “proliferation of HaCaT cells (cell number over time)” value is on record as “strongly inhibited proliferation; also recorded: has a proliferation inhibitory effect”. In assay [2], the “proliferation of He1a cells (cell number over time)” value is recorded as “strongly inhibited proliferation; also recorded: has a proliferation inhibitory effect”.

On to `O=C(CO)[C@H](O)[C@H](O)[C@H](O)CO` [D-psicose], for which the “basic secretion of MCP-1” value in assay [3] was “able to inhibit the secretion of MCP-1 depending on the concentration; also recorded: has a MCP-1 secretion inhibitory effect”. In addition, the “cytokine-stimulated secretion of MCP-1” value in assay [3] (IL-1β 1 ng/mL pretreatment 1 hour) was “inhibited by added D-psicose depending on the concentration; also recorded: inhibits secretion of MCP-1”.
